This note sets out measurements from patent publication US12485140B2, “Transmission prevention of viruses with application of antiseptic composition” (Solventum Intellectual Properties Company, priority 2019, dated 2025).

The structures appear in SMILES notation.

For one data set, the system named is Vero 76 cells. Conditions: African green monkey.
A further data set relates to SARS-CoV-2 virus. In words: In vitro viricidal assay against SARS-CoV-2 (CCID50 end-point titer on Vero 76 cells). Conditions: 22 ± 2° C.; for Log Reduction Value (LRV): compared to the virus control; for Virus Titer: mean of 3 replicates.

Regarding `CCO` [CE19, Ethanol], the “dilutions of the neutralized sample showing toxicity toward Vero 76 cells” value in the data set with Vero 76 cells is on record as 1/10 dilution. Moreover, the “Log Reduction Value (LRV)” value is on record as 2.4 in the data set on SARS-CoV-2 virus (incubation time 0.5 min), 2.1 in the data set with SARS-CoV-2 virus (incubation time 1 min) and 2.3 in the data set on SARS-CoV-2 virus (incubation time 2 min). The “Virus Titer” value with SARS-CoV-2 virus (incubation time 0.5 min), in the data set on SARS-CoV-2 virus (incubation time 1 min) and in the data set on SARS-CoV-2 virus (incubation time 2 min) was <1.7 Log10 CCID50 of virus per mL in each case.
